According to ChEMBL document CHEMBL4665834 (J Med Chem, 2020):

Legend:
[1] = species: Homo sapiens; assay: Selectivity ratio of IC50 for displacement of [3H]prostaglandin E2 from full-length recombinant human EP2 receptor expressed in HEK293 cell membranes to IC50 for displacement of [3H]PGF2alpha from full-length recombinant human FP receptor expressed in HEK293 cell membranes
[2] = species: Homo sapiens; assay: Selectivity ratio of IC50 for displacement of [3H]prostaglandin E2 from full-length recombinant human EP4 receptor expressed in Chem-1 cell membranes to IC50 for displacement of [3H]PGF2alpha from full-length recombinant human FP receptor expressed in HEK293 cell membranes
[3] = species: Homo sapiens; assay: Selectivity ratio of IC50 for displacement of [3H]prostaglandin E2 from full-length recombinant human EP3 receptor expressed in HEK293 cell membranes to IC50 for displacement of [3H]PGF2alpha from full-length recombinant human FP receptor expressed in HEK293 cell membranes
[4] = species: Homo sapiens; assay: Selectivity ratio of IC50 for displacement of [3H]prostaglandin E2 from full-length recombinant human EP1 receptor expressed in HEK293 cell membranes to IC50 for displacement of [3H]PGF2alpha from full-length recombinant human FP receptor expressed in HEK293 cell membranes
[5] = species: Homo sapiens; assay: Selectivity ratio of IC50 for displacement of [3H]PGD2 from full-length recombinant human IP receptor expressed in HEK293 cell membranes to IC50 for displacement of [3H]PGF2alpha from full-length recombinant human FP receptor expressed in HEK293 cell membranes
[6] = species: Homo sapiens; assay: Selectivity ratio of IC50 for displacement of [3H]PGD2 from full-length recombinant human DP1 receptor expressed in Chem-1 cell membranes to IC50 for displacement of [3H]PGF2alpha from full-length recombinant human FP receptor expressed in HEK293 cell membranes
[7] = Relative oral bioavailability in Wistar rat at 1 to 3 mg/kg administered via gavage in 99.5% water, 0.5% Tylose and TRIS salt formulation by LC-MS/MS analysis; type: ADME, organism-based; conditions: in vivo, dose 1-3 mg/kg
[8] = Relative oral bioavailability in Wistar rat at 1 to 3 mg/kg administered via gavage using crystalline form of sample in sodium salt formulation by LC-MS/MS analysis; type: ADME, organism-based; conditions: in vivo, dose 1-3 mg/kg
[9] = molecular target: Cytochrome P450 3A4 (Homo sapiens, UniProt P08684); assay: Inhibition of CYP3A4 in human liver microsomes using midazolam as substrate incubated for 10 mins in presence of NADPH generating system by LC-MS/MS analysis
Chain of Cytochrome P450 3A4 (P08684 whole entry): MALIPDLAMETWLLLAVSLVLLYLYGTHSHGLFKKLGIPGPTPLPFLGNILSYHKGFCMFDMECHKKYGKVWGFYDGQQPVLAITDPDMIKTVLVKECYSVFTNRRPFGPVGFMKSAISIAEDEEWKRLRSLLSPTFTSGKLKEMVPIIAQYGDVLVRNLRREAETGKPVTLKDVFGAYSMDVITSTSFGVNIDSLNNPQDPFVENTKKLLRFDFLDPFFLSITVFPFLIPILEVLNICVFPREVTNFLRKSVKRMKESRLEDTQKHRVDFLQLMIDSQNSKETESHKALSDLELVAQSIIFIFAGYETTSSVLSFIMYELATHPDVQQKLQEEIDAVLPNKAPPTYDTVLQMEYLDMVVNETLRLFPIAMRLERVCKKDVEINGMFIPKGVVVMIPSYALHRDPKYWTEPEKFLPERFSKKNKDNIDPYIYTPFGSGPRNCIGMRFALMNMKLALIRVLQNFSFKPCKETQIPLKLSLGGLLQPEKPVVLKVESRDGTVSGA

[10] = molecular target: T1, Prostaglandin F2-alpha receptor (Homo sapiens, UniProt P43088); assay: Antagonist activity at human FPR expressed in human Chem-1 cells assessed as inhibition of PGF2alpha-induced calcium flux preincubated for 10 mins followed by PGF2alpha stimulation and measured for 120 secs by fluo-8 AM dye based fluorescence assay; type: functional, cell-based
T1 sequence (P43088 whole entry): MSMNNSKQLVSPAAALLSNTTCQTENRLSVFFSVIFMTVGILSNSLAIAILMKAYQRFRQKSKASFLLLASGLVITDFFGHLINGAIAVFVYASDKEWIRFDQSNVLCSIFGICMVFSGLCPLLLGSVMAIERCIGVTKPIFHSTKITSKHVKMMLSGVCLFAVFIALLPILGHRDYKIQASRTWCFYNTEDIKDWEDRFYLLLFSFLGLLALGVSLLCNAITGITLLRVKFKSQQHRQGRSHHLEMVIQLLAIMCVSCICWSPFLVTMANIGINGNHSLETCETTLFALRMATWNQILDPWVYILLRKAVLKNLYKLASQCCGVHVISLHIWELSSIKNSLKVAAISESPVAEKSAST

[11] = Lipophilicity, log D of compound at pH 7.5 by HPLC analysis; conditions: buffer
[12] = Clearance in Wistar rat at 0.3 to 1 mg/kg, iv administered as bolus dose or 15 mins infusion by LC-MS/MS analysis; type: ADME, organism-based; conditions: Wistar, in vivo, dose 0.3-1 mg/kg
[13] = Efflux ratio of apparent permeability across basolateral to apical side over apical to basolateral side in human Caco-2 cells measured after 2 hrs by HPLC analysis; type: ADME, cell-based
[14] = Apparent permeability in human Caco-2 cells measured after 2 hrs by HPLC analysis; type: ADME, cell-based
[15] = Maximum oral bioavailability in rat hepatocytes based well stirred liver model at 1 uM measured after 2 to 90 mins by LC-MS/MS analysis; type: ADME, Hepatocyte; conditions: time 2-90 min, read-out: Fmax
[16] = Clearance in Wistar rat hepatocytes assessed as extrapolated blood clearance at 1 uM measured after 2 to 90 mins by LC-MS/MS analysis; type: ADME, cell-based, Hepatocyte; conditions: time 2-90 min
[17] = Solubility of compound in water using crystalline form of sample; type: physicochemical
[18] = Half life in Wistar rat at 0.3 to 1 mg/kg, iv administered as bolus dose by LC-MS/MS analysis; type: ADME, organism-based; conditions: in vivo, dose 0.3-1 mg/kg
[19] = Oral bioavailability in Wistar rat at 1 to 3 mg/kg administered via gavage using EtOH/PEG400/H2O 10/40/50 formulation by LC-MS/MS analysis; type: ADME, organism-based; conditions: in vivo, dose 1-3 mg/kg
[20] = Clearance in Wistar rat at 0.3 to 1 mg/kg, iv administered as bolus dose by LC-MS/MS analysis; type: ADME, organism-based; conditions: in vivo, dose 0.3-1 mg/kg
[21] = molecular target: T1, Prostaglandin F2-alpha receptor; assay: Displacement of [3H]PGF2alpha from full-length recombinant human FP receptor expressed in HEK293 cell membranes measured after 60 mins by scintillation counting method
[22] = Protein binding in pooled human plasma assessed as unbound fraction incubated for 6 hrs by LC-MS/MS analysis based equilibrium dialysis method; type: ADME, cell-free

IC50 [9] [nM]	IC50 [10] [nM]	logD [11]	clearance [12] [mL/min/kg]	SMILES	Ratio IC50 [1]	Ratio IC50 [2]	Ratio IC50 [3]	Ratio IC50 [4]	Ratio IC50 [5]	Ratio IC50 [6]	further results
–	–	–	–	CCC1CCCN(c2nc3ccc(Br)cc3c(C(=O)NCC(CCC(=O)O)c3ccccc3Cl)c2C)C1 (single isomer, unassigned; 52)	> 180	> 180	> 180	> 180	> 180	> 180	–
–	–	–	–	Cc1c(-c2ccccc2)nc2ccc(Br)cc2c1C(=O)NCC(CCC(=O)O)c1ccccc1Cl (single isomer, unassigned; (+)) [listing 1 of 2 here]	> 6300	> 6300	> 6300	> 6300	> 6300	> 6300	–
–	–	–	–	Cc1c(-c2ccccc2)nc2ccc(Br)cc2c1C(=O)Nc1ccc(C(=O)O)cc1F.NC(CO)(CO)CO	–	–	–	–	–	–	bioavailability [7]: 37%
–	–	–	–	Cc1c(-c2ccccc2)nc2ccc(Br)cc2c1C(=O)Nc1ccc(C(=O)[O-])cc1F.[Na+]	–	–	–	–	–	–	bioavailability [8]: 29%
–	–	–	–	Cc1c(-c2ccccc2)nc2ccc(Br)cc2c1C(=O)NC12CCC(C(=O)O)(CC1)CC2.NC(CO)(CO)CO	–	–	–	–	–	–	bioavailability [7]: 79%
–	–	–	–	CCC1CCCN(c2nc3ccc(Br)cc3c(C(=O)NCC(CCC(=O)O)c3ccccc3Cl)c2C)C1 (single isomer, unassigned; 54)	> 180	> 180	> 180	> 180	> 180	> 180	–
> 20000	1100	1.9	–	COc1ccc(C(CNC(=O)c2c(C)c(-c3ccccc3)nc3ccc(Br)cc23)CC(=O)O)cc1 (racemic)	–	> 63	–	–	–	–	–
> 20000	40	1.6	100	Cc1c(C(=O)Nc2ccc(C(=O)O)cc2F)c2cc(Br)ccc2c(=O)n1-c1ccccc1	> 1600	170	> 1600	> 1600	> 1600	> 1600	efflux ratio at 2 h [13]: 7.4; Papp at 2 h [14]: 3.9 ×10⁻⁶ cm/s
–	–	2.1	–	O=C(O)c1ccc(NC(=O)c2c(Cl)c(-c3ccccc3)nc3ccc(Br)cc23)c(F)c1	> 38	14	> 38	> 38	> 38	> 38	–
13000	–	–	33.3	Cc1c(-c2ccccc2)nc2ccc(Br)cc2c1C(=O)NCC(CCCC(=O)O)c1ccccc1Cl (stereo in doubt; 44)	–	–	–	–	–	–	Papp at 2 h [14]: 40.1 ×10⁻⁶ cm/s
–	–	–	–	Cc1c(-c2ccccc2)nc2ccc(Br)cc2c1C(=O)NC12CCC(C(=O)[O-])(CC1)CC2.[Na+]	–	–	–	–	–	–	bioavailability [8]: 80%
–	3400	2.6	–	Cc1c(-c2ccccc2)nc2ccc(Br)cc2c1C(=O)NCCc1cccnc1	–	> 7.7	–	–	–	–	Fh at 1 µM [15]: 4%
> 20000	150	1.9	23.3	Cc1c(-c2ccccc2)nc2ccc(Br)cc2c1C(=O)Nc1ccc(C(=O)O)cc1	> 110	10	> 110	> 110	> 110	> 110	–
–	190	3.1	–	Cc1c(-c2ccccc2)nc2ccc(Br)cc2c1C(=O)NCC(C)c1ccccn1 (racemic)	–	–	–	–	–	–	Fh at 1 µM [15]: 24%
> 20000	250	2.2	20	Cc1c(-c2ccccc2)nc2ccc(Br)cc2c1COc1ccc(C(=O)O)cc1F	–	20	–	–	–	–	–
–	–	–	55	Cc1c(-c2ccccc2)nc2ccc(Br)cc2c1C(=O)NCC(C(=O)O)c1ccccc1Cl (stereo in doubt; 31)	–	–	–	–	–	–	Fh at 1 µM [15]: 78%; CLhep predicted at 1 µM [16]: 15 mL/min/kg
–	–	–	–	CCC1CCCN(c2nc3ccc(Br)cc3c(C(=O)NCC(CCC(=O)O)c3ccccc3Cl)c2C)C1 (single isomer, unassigned; 53)	> 580	> 580	> 580	> 580	> 580	> 580	–
> 20000	–	2.1	20	Cc1c(-c2ccccc2)nc2ccc(C(C)(C)C)cc2c1C(=O)Nc1ccc(C(=O)O)cc1F	> 87	170	> 87	> 87	> 87	> 87	–
–	200	–	–	Cc1c(-c2ccccc2)nc2ccc(Br)cc2c1C(=O)NCCc1ccccn1	–	–	–	–	–	–	Fh at 1 µM [15]: 7%
> 20000	–	2	21.7	Cc1c(-c2ccccc2)nc2ccc(I)cc2c1C(=O)Nc1ccc(C(=O)O)cc1F	> 86	15	> 86	> 86	> 86	> 86	–
–	–	–	–	Cc1c(N2CCCC2)nc2ccc(Br)cc2c1C(=O)NC[C@H](CCC(=O)O)c1ccccc1Cl.Cl	–	–	–	–	–	–	solubility [17]: 2300 µg/mL
–	–	–	–	Cc1c(-c2ccccc2)nc2ccc(Br)cc2c1C(=O)Nc1ccc(C(N)=O)cc1F	–	16	–	–	–	–	efflux ratio at 2 h [13]: 18; CLhep predicted at 1 µM [16]: 58.3 mL/min/kg
–	–	–	–	Cc1c(-c2ccccc2)nc2ccc(Br)cc2c1C(=O)NCC(CCC(=O)O)c1ccccc1Cl (single isomer, unassigned; (-))	> 8200	> 8200	> 8200	> 8200	> 8200	> 8200	–
–	–	–	–	CCC1CCCN(c2nc3ccc(Br)cc3c(C(=O)NCC(CCC(=O)O)c3ccccc3Cl)c2C)C1 (single isomer, unassigned; 55)	> 300	> 300	> 300	> 300	> 300	> 300	–
> 20000	–	1.4	–	Cc1c(C(=O)Nc2ccc(C(=O)O)cc2F)c2cc(Br)ccc2[n+]([O-])c1-c1ccccc1	> 91	53	> 91	> 91	> 91	> 91	–
> 20000	–	2.1	40	Cc1c(-c2ccccc2)nc2ccc(C(F)(F)F)cc2c1C(=O)Nc1ccc(C(=O)O)cc1F	> 64	13	> 64	> 64	> 64	> 64	–
–	–	–	–	Cc1c(-c2ccccc2)nc2ccc(Br)cc2c1C(=O)Nc1ccc(C(=O)O)cc1F	> 76	16	> 76	> 76	> 76	> 76	–
–	5.2	–	–	Cc1c(-c2ccccc2)nc2ccc(Br)cc2c1C(=O)Nc1ccc(-c2nnn[nH]2)cc1F	–	50	–	–	–	–	efflux ratio at 2 h [13]: 10; clearance [20]: 50 mL/min/kg
–	14	–	63.3	COc1ccccc1C(C)CNC(=O)c1c(C)c(-c2ccccc2)nc2ccc(Br)cc12 (single isomer, unassigned; (-))	–	–	–	–	–	–	IC50 [21]: < 1 nM; fraction unbound at 6 h [22]: < 0.01; Fh at 1 µM [15]: 6%; CLhep predicted at 1 µM [16]: 65 mL/min/kg

SMILES	IC50 [9] [nM]	IC50 [10] [nM]	logD [11]	clearance [12] [mL/min/kg]	Ratio IC50 [1]	Ratio IC50 [2]	Ratio IC50 [3]	Ratio IC50 [4]	Ratio IC50 [5]	Ratio IC50 [6]	further results
Cc1c(-c2ccccc2)nc2ccc(Br)cc2c1C(=O)NCC(CCC(=O)O)c1ccccc1Cl (single isomer, unassigned; (+)) [listing 2 of 2 here]	> 20000	9	2.2	30	–	–	–	–	–	–	half-life [18]: 5.5 h; bioavailability [19]: 75%
